# Experimental data reported in paper PMC9017349, “Spiropyrimidinetriones: a Class of DNA Gyrase Inhibitors with Activity against Mycobacterium tuberculosis and without Cross-Resistance to Fluoroquinolones” (Antimicrobial Agents and Chemotherapy, 2022).
# What was measured:
# M. tuberculosis H37Rv [1] = assay: MIC against M. tuberculosis H37Rv in 7H9 medium with various supplements; assay type: cell-based, Mycobacterium tuberculosis; conditions: Mycobacterium tuberculosis
# [2] = test system: M. tuberculosis Erdman pFCA-LuxAB (Erdman Lux); conditions: BALB/c mice, 100 mg/kg p.o. daily, 12 days
# Mtb = assay type: in vivo; conditions: 100 mg/kg, day 21; limit 1.57 log10 CFU
# [3] = test system: recA promoter reporter in M. tuberculosis H37Rv; assay type: cell-based, Mycobacterium tuberculosis
# M. tuberculosis = conditions: 200 mg/kg, 14 days of dosing, published study; cited from earlier work
# H37Rv (RecA) = assay type: cell-based, Mycobacterium tuberculosis
# M. tuberculosis H37Rv [4] = assay: microbe, parasite or virus in culture; assay type: cell-based; conditions: Mycobacterium tuberculosis, read-out: MIC90, H37Rv
# M. tuberculosis H37Rv [5] = assay: microbe, parasite or virus in culture; assay type: cell-based; conditions: for MIC / MBC: Mycobacterium tuberculosis, 168 h; for MIC: H37Rv, 7 days, Middlebrook 7H9 with OADC and glycerol, read-out: MIC (dose-response); for MBC: H37RV, transfer to charcoal agar, additional 7 days; for MBC / MBC relative to MIC: CARA
# [6] = test system: iniB promoter reporter in M. tuberculosis H37Rv; assay type: cell-based, Mycobacterium tuberculosis
# N. gonorrhoeae = assay type: cell-based
# [7] = H37RV, read-out: MIC, ADC/GLU/TW
# [8] = H37RV, read-out: MIC, DPPC/CAS/TX
# [9] = H37RV, read-out: MIC, DPPC/Chol/BSA/TX
# [10] = H37RV, read-out: MIC, GLU/BSA/TX
# [11] = H37RV, read-out: MIC, GLU/CAS/TX
SMILES,MIC (M. tuberculosis H37Rv [1]; [7]) [µM],MIC (M. tuberculosis H37Rv [1]; [8]) [µM],MIC (M. tuberculosis H37Rv [1]; [9]) [µM],MIC (M. tuberculosis H37Rv [1]; [10]) [µM],MIC (M. tuberculosis H37Rv [1]; [11]) [µM],also measured
CC1CN2c3c(cc4c(N5C(=O)OCC5c5ncnn5C)noc4c3F)CC3(C(=O)NC(=O)NC3=O)C2C(C)O1 (stereo not shown) [Compound 9],16,> 50,> 50,> 50,37,
"CC[C@@H](CO)NCCN[C@@H](CC)CO [Ethambutol, ethambutol, reference compound]",,,,,,"CFU decline in lung burdens relative to the untreated controls [2]: 2.6 log10 CFU; n, number of mice showing viable bacteria above the lower limit of detection/total number of animals tested (Mtb): 5/5"
"COc1c(N2C[C@@H]3CCCN[C@@H]3C2)c(F)cc2c(=O)c(C(=O)O)cn(C3CC3)c12 [Moxifloxacin, moxifloxacin]",,,,,,"MIC (M. tuberculosis H37Rv [1]; H37Rv, 7H9 medium with DPPC/Casitone/tyloxapol, read-out: MIC, DPPC/CAS/TX): 0.2 µM; MIC (M. tuberculosis H37Rv [1]; H37Rv, 7H9 medium with albumin-dextrose catalase/glucose/Tween, read-out: MIC, ADC/GLU/TW): 0.17 µM; MIC (M. tuberculosis H37Rv [1]; H37Rv, 7H9 medium with glucose/BSA/tyloxapol, read-out: MIC, GLU/BSA/TX): 0.3 µM; PrecA-LUX signal higher than for 22 ([3]; at 0.5× MIC): ~6 fold; CFU reduction (M. tuberculosis): 3.3 log10 CFU; PrecA-LUX MIC (H37Rv (RecA)): ~ 0.19 μM; MIC90 (M. tuberculosis H37Rv [4]): 0.24 µM; MIC (M. tuberculosis H37Rv [5]): 0.38 µM; MBC (M. tuberculosis H37Rv [5]): 0.78 µM; n, number of mice showing viable bacteria above the lower limit of detection/total number of animals tested (Mtb): 3/6"
CC1CN2c3c(cc4c(N5C(=O)OC6CCOCC65)noc4c3F)CC3(C(=O)NC(=O)NC3=O)C2C(C)O1 (stereo not shown) [Compound 13],1.9,12,4.7,6.2,4.7,
CC1CN2c3c(cc4c(N5C(=O)OC6COCC65)noc4c3F)CC3(C(=O)NC(=O)NC3=O)C2C(C)O1 (stereo not shown) [Compound 6],0.98,4.7,2.3,3.1,1.6,
CC1CN2c3c(cc4c(N5CC(CO)OC5=O)noc4c3Cl)CC3(C(=O)NC(=O)NC3=O)C2C(C)O1 (stereo not shown) [Compound 3],2,6.2,4.7,4.7,2.3,
"NNC(=O)c1ccncc1 [Isoniazid, isoniazid]",,,,,,bioluminescence response in PrecA-LUX assay ([3]; over 7 days): did not elicit significant luminescence; bioluminescence response in PiniB-LUX assay [6]: strong signal; PrecA-LUX MIC (H37Rv (RecA)): ~ 7 μM; MIC90 (M. tuberculosis H37Rv [4]): 3.95 µM; MBC relative to MIC (M. tuberculosis H37Rv [5]): less than 4 fold; MIC (M. tuberculosis H37Rv [5]): 4.61 µM; MBC (M. tuberculosis H37Rv [5]): 3.9 µM
C[C@@H]1CN2c3c(cc4c(-n5cncn5)noc4c3Cl)CC3(C(=O)NC(=O)NC3=O)[C@H]2[C@H](C)O1 [Compound 18],0.49,3.1,1.6,1.6,0.78,
C[C@H]1COc2c(N3CCN(C)CC3)c(F)cc3c(=O)c(C(=O)O)cn1c23 [Levofloxacin],,,,,,MIC90 (M. tuberculosis H37Rv [4]): 0.49 µM
CC1CN2c3c(cc4c(N5C(=O)OCC5CCCO)noc4c3Cl)CC3(C(=O)NC(=O)NC3=O)C2C(C)O1 (stereo not shown) [Compound 4],4.8,12,12,12,9.4,
"CC(=O)NC[C@H]1CN(c2ccc(N3CCOCC3)c(F)c2)C(=O)O1 [Linezolid, linezolid]",,,,,,MBC relative to MIC (M. tuberculosis H37Rv [5]): greater than 4 fold; MIC (M. tuberculosis H37Rv [5]): 1.51 µM; MBC (M. tuberculosis H37Rv [5]): 7.8 µM
C[C@@H]1CN2c3c(cc4c(C5=N[C@H](C)[C@@H](C)N5)noc4c3F)CC3(C(=O)NC(=O)NC3=O)[C@H]2[C@H](C)O1 [Compound 20],5.5,6.2,6.2,4.7,3.1,
CC1CN2c3c(cc4c(N5C(=O)OC6COCCC65)noc4c3F)CC3(C(=O)NC(=O)NC3=O)C2C(C)O1 (stereo not shown) [Compound 10],3.9,12,12,12,6.2,
C[C@@H]1CN2c3c(cc4c(N5CCN(C)C5=O)noc4c3F)CC3(C(=O)NC(=O)NC3=O)[C@H]2[C@H](C)O1 [Compound 23],4.3,37,12,19,6.2,
CC1CN2c3c(cc4c(N5C(=O)OCC5CCO)noc4c3F)CC3(C(=O)NC(=O)NC3=O)C2C(C)O1 (stereo not shown) [Compound 1],3.9,6.2,9.4,9.4,4.7,
"C[C@@H]1CN2c3c(cc4c(N5C(=O)OC[C@@H]5C)noc4c3F)CC3(C(=O)NC(=O)NC3=O)[C@H]2[C@H](C)O1 [Zoliflodacin, zoliflodacin, reference compound]",6.4,19,19,12,19,MIC against N. gonorrhoeae lower than that for 22 (N. gonorrhoeae): 8 fold
